According to patent US6555566B2, “Methods and materials for treating and preventing inflammation of mucosal tissue” (Mayo Foundation for Medical Education and Research, priority 1997, dated 2003):
“And” between values parts separate entries of the source, which are not always exact repeats. Identical values can stand only once.

Assays:
[1] = system: non-invasive fungus-induced rhinosinusitis patients; assay: Amphotericin B nasal irrigation study, three month follow-up of 53 patients; assay type: in vivo, human
Description: In addition to patient interviewing, CT scan analysis, visual examination, and fungal culture analysis, two types of evaluations were used to score the success of the treatment: an endoscopic evaluation and a patient symptom evaluation.

[2] = system: non-invasive fungus-induced rhinosinusitis patients; assay: Patient data collected during a one week period (amphotericin B nasal irrigations); assay type: in vivo, human; parameters: Endoscopy Score B / Endoscopy Score A / Symptom Score B: scale not given here
Description: Only previously seen patients that were instructed to use the antifungal amphotericin B nasal irrigations were entered into this study.
During a one week period, twenty patients returned to the physician's office (Table II). The average age of the returning patients was 47 years (range 16-74 years). The patients were using the amphotericin B irrigations for an average duration of about six months (range 1-16 months). […] In addition, some patients were using topical and systemic steroid therapy. Further, some patients were using an antibiotic nasal irrigation in addition to the antifungal irrigations. The antibacterial solution contained 80 mg gentamicin per L saline (Wilson's solution). Some patients mixed the antibacterial solution with the antifungal solution and then performed the nasal irrigations while others used each solution separately in a sequential manner. Some patients also had other diseases including asthma (15 of the 20 patients) and colitis (2 of the 20 patients).

[3] = system: non-invasive fungus-induced rhinosinusitis patients; assay: Amphotericin B irrigations in patients without previous nasal surgery; assay type: in vivo, human
Description: A person was diagnosed with non-invasive fungus-induced rhinosinusitis and instructed to perform amphotericin B irrigations twice a day.
A person was diagnosed with non-invasive fungus-induced rhinosinusitis and instructed to perform amphotericin B irrigations twice a day, which was later increased to four times a day.
A person was diagnosed with non-invasive fungus-induced rhinosinusitis and instructed to perform amphotericin B irrigations twice a day. This patient had been given intramuscular steroid shots every 3 to 8 months with the last shot being administered about seven months prior to starting the amphotericin B irrigations.

[4] = system: non-invasive fungus-induced rhinosinusitis patient; assay: Eosinophil count in mucosal biopsies after antifungal treatment; assay type: in vivo, human; settings: after nine months of irrigations twice a day
Description: A person was diagnosed with non-invasive fungus-induced rhinosinusitis and instructed to perform amphotericin B irrigations twice a day. After nine months of amphotericin B irrigations, the patient underwent sinus surgery for further improvement. During the surgery mucosal biopsies were collected and the eosinophil count compared to the those obtained from biopsies collected from the patient during a surgery prior to the antifungal treatment.

[5] = system: non-invasive fungus-induced rhinosinusitis patients; assay: Itraconazole nasal irrigations in rhinosinusitis patients; assay type: in vivo, human; parameters: symptom score before itraconazole irrigations / symptom score after itraconazole irrigations / endoscopic score, right side, before / endoscopic score, right side, after / endoscopic score, left side, before / endoscopic score, left side, after: scale not given here
Method: Three non-invasive fungus-induced rhinosinusitis patients (person, person, and person) were instructed to perform nasal irrigation with an itraconazole solution. The itraconazole solution contained about 100 mg of itraconazole per L of solution (10% PEG-400 in sterile water) and was prepared as described herein. […] Each patient reported marked improvement in symptoms within two weeks of starting the itraconazole irrigations (symptom scores: −1 to +2 and −1 to +1).
After treatment with itraconazole, that patient reported symptom improvement (symptom score: from −1 to 0).

chronic asthma patients = assay: Chronic asthma symptoms in patients of the amphotericin B irrigation study
Method: One hundred and thirty-two consecutive rhinosinusitis patients were entered into a study to evaluate the use of an antifungal agent to treat non-invasive fungus-induced rhinosinusitis. […] The 125 non-invasive fungus-induced rhinosinusitis patients were started on an antifungal treatment of about 20 mL of an amphotericin B solution per nostril, two to four times daily for at least three months. The concentration of the amphotericin B solution was about 100 mg per liter of saline or water. A 20 mL bulb was used by the patient to mucoadminister the amphotericin B solution into the patient's nasal-paranasal anatomy. Data were compiled for 53 of the patients who had returned for their three month follow-up analysis.

rhinosinusitis patient = assay: Single patient, one-sided then two-sided amphotericin B irrigation with surgery, RAST to Alternaria
Method: Only the left nasal-paranasal side, however, received surgery as well as intra-operative and post-operative treatment with about 20 mL of an amphotericin B solution (100 mg/L) two to four times daily.

[6] = after treatment, three month follow-up
[7] = after antifungal treatment, nasal irrigations 1-16 months, 1-2x day, one line per patient, r26 and r28 switched to itraconazole for the last month, r13 stopped 8 months earlier
[8] = before antifungal treatment (baseline), one line per patient
[9] = sixteen days after starting itraconazole irrigations, one patient

## C[C@@H]1[C@H](O)[C@@H](C)/C=C/C=C/C=C/C=C/C=C/C=C/C=C/[C@H](O[C@@H]2O[C@H](C)[C@@H](O)[C@H](N)[C@@H]2O)C[C@@H]2O[C@](O)(C[C@@H](O)C[C@@H](O)[C@H](O)CC[C@@H](O)C[C@@H](O)CC(=O)O[C@H]1C)C[C@H](O)[C@H]2C(=O)O [amphotericin B]
[1]; after three months, about 20 mL of 100 mg/L solution per nostril, two to four times daily
  patients going from endoscopic evaluation stage 2 or 3 to stage 0: 33 of the 53
[1]; [6]
  patients giving themselves symptom stage 0 (baseline/no change): six of the 53
  patients giving themselves symptom stage 1 (good/improved): three of the 53
  patients giving themselves symptom stage 2 (very good/free of symptoms): 44 of the 53
[1]; endoscopic evaluation after three months
  patients that did not respond to the treatment (of 53): nine
[1]; five of the nine non-responders had mucus samples available
  non-responding patients whose mucus fungal organisms were resistant to the agent: all five
[1]; one patient with bilateral rhinosinusitis, no recent surgery, no steroids, 20 mL of 100 mg/L per nostril two times daily, four months
  CT scan finding after treatment: complete disappearance of opacity and symptoms characteristic of rhinosinusitis
[1]; several patients, fungal organism culturing
  number of different fungal species in mucus after versus before treatment: remarkably reduced
[2]; [7]
  Endoscopy Score A: 0 (10×) and 3 (5×) and 1 (2×)
  Symptom Score A: +1 (6×) and +2 (6×) and 0 (6×) and −2 and 1
[2]; [8]
  Endoscopy Score B: 1 (3×) and 2 (5×) and 3 (10×) and 0
  Symptom Score B: −1 (14×) and −2 (6×)
[2]; nasal irrigations, average about six months
  endoscopic evaluation, overall outcome of the twenty patients: most patients had an observable improvement
[3]; baseline, no previous nasal surgery, one line per patient
  symptom score before treatment: −1
[3]; irrigations twice a day (b227 later four times a day) for fourteen, sixteen, four months
  endoscopic score after treatment: 0
[4]
  eosinophil count in mucosal biopsies, all sinuses except the frontal: < 5%
[4]; frontal sinus obstructed, presumably not reached
  eosinophil count in the frontal sinus biopsy: 10%
[5]; one patient (third patient)
  local reaction to nasal irrigations: burning sensation
Chronic asthma patients; after starting treatment
  patients no longer exhibiting asthma symptoms who stopped taking their asthma medication: 26 of the 28
Chronic asthma patients; after three months of nasal irrigation treatment of Example 2
  asthmatic patients declaring improvement or complete elimination of asthma symptoms: 28 of the 37
Chronic asthma patients; four of the 28 improved patients tested
  patients with improved pulmonary function test after versus before treatment: all four
Chronic asthma patients; of twenty-three patients on systemic steroids for asthma before
  patients taking steroids after starting treatment: none
Rhinosinusitis patient; after surgery on the right side and irrigation of both sides for about seven weeks
  RAST reading to Alternaria: 4.47 KU/L
Rhinosinusitis patient; at every post-operative visit, surgery plus irrigation of the left side
  state of the treated left paranasal sinuses: clear of disease
Rhinosinusitis patient; before treatment (baseline)
  RAST reading to Alternaria: 6.23 KU/L
Rhinosinusitis patient; only left side operated and irrigated (about 20 mL, 100 mg/L, two to four times daily), eight to ten weeks after symptoms disappeared on the left
  RAST reading to Alternaria: 7.16 KU/L
Rhinosinusitis patient; six months after the last surgery, both sides irrigated
  patient state by CT scan: symptom-free and disease-free
Rhinosinusitis patient; six months post-operation, only left side treated, rhinosinusitis diagnosed on the right
  RAST reading to Alternaria: 10.0 KU/L

## CCC(C)n1ncn(-c2ccc(N3CCN(c4ccc(OCC5COC(Cn6cncn6)(c6ccc(Cl)cc6Cl)O5)cc4)CC3)cc2)c1=O (centres unmarked) [itraconazole]
[5]; about 100 mg per L (10% PEG-400 in sterile water), within two weeks, patients not responding to amphotericin B, one line per patient
  symptom score after itraconazole irrigations: +2 and +1 and 0
[5]; baseline, one line per patient
  symptom score before itraconazole irrigations: −1
[5]; baseline, one patient
  endoscopic score, left side, before: 1
  endoscopic score, right side, before: 1
[5]; human, in vivo
  local reaction to nasal irrigations: did not have any adverse local reaction
[5]; [9]
  endoscopic score, left side, after: 1
  endoscopic score, right side, after: 0
